Reference: patent US20130178441A1, “Methods for Extending Progression-Free Survival using 10-Propargyl-10-Deazaaminopterin” (ALLOS THERAPEUTICS, INC., priority 2010, published 2013)
Values joined by “and” are separate entries in the source; they are usually repeats but may differ in a detail not shown here. Equal values may be shown once. “Also recorded” adds a separate entry of the source. Marks after values point to notes of the source that are not given here.

Columns and labels:
relapsed/refractory PTCL [1] = assay: PROPEL subset analysis: second-line pralatrexate after first-line CHOP only (N=15) vs other patients (n=94); assay type: in vivo, human
Experimental: The most common therapy for first-line treatment of PTCL is the multi-agent combination cyclophosphamide/doxorubicin/vincristine prednisone (CHOP). However, most patients progress within 6-12 months, and there is no standard of care for second-line treatment of these patients. Thus optimal second-line approaches are needed and agents based on a unique mechanism of action warrant study. This analysis was conducted to determine if pralatrexate offered a beneficial second-line treatment option. […] All patients in the PROPEL study had received at least 1 prior therapy for PTCL. […] The efficacy in these patients was compared with the remainder of the patient population who had not received CHOP as their only therapy for PTCL prior to pralatrexate (n=94).

relapsed/refractory PTCL [2] = assay: PROPEL analysis by treatment duration (<1, ≧1, ≧2 cycles of pralatrexate): efficacy; assay type: in vivo, human; details: for Median PFS by Central Review (months): Kaplan-Meier
Experimental: The pivotal PROPEL study of pralatrexate (FOLOTYN®) in patients with relapsed or refractory PTCL reported a rapid response to treatment in a heavily pretreated patient population. The majority of patients (63% of responders) responded by their first assessment at 7 weeks (the end of cycle 1). The present analysis assessed if there were any unique characteristics of patients who were unable to complete the first cycle of therapy and to assess the outcomes of patients who received ≧1 or ≧2 cycles of pralatrexate. Pralatrexate, a folate analog targeting dihydrofolate reductase, was approved in the United States for treatment of relapsed or refractory PTCL based on the PROPEL study. Methods: In PROPEL, patients received 30 mg/m^2 pralatrexate once weekly for 6 weeks in successive 7-week cycles. […] Cycle completion was determined receiving ≧1 dose in the following cycle. Thus, the subgroup of patients who completed ≧1 (n=64) includes those patients who only completed 1 cycle+the 43 who completed ≧2 cycles of treatment. […] However, the patients not completing cycle lwere more likely to have the angioimmunoblastic subtype (20% vs 6%). Patients in each subgroup received a median of 3 prior treatment regimens.

[3] = 15 patients with CHOP as only prior therapy
[4] = individual responders after first-line CHOP, central review, most values censored
[5] = other patients in the study (n=94)
[6] = second-line after CHOP, N=15, central review
[7] = second-line after CHOP, N=15, investigator
[8] = second-line after CHOP, N=15, investigator, Kaplan-Meier
[9] = second-line after CHOP, N=15, investigator, Kaplan-Meier, listed as pralatrexate
[10] = Treatment Duration <1 cycle (n=45)
[11] = Treatment Duration ≧1 cycle (n=64)
[12] = Treatment Duration ≧2 cycles (n=43)

In the case of C#CCC(Cc1cnc2nc(N)nc(N)c2n1)c1ccc(C(=O)N[C@@H](CCC(=O)O)C(=O)O)cc1 (mixture of isomers) [Pralatrexate, (2S)-2-[[4-[(1RS)-1-[(2,4-diaminopteridin-6-yl)methyl]but-3-ynyl]benzoyl]amino]pentanedioic acid], the “CR/CRu by investigators assessment” value (relapsed/refractory PTCL [1]; [3]) is reported as 33%, the “Complete responses [CR] by independent central review” value (relapsed/refractory PTCL [1]; [3]) is reported as 20% and the “ORR by investigator assessment” value (relapsed/refractory PTCL [1]; [3]) is reported as 40%. For the same compound, the “Overall response rate (ORR) by independent central review” value (relapsed/refractory PTCL [1]; [3]) was 47%, the “Duration of Response” value (relapsed/refractory PTCL [1]; individual responder after first-line CHOP, central review, censored (initiation of other subsequent therapy)) was 1 day^a and the “Duration of Response (months)” value (relapsed/refractory PTCL [1]; [4]) was 10.1^a months and 9.7^b months and 8.3^b months and 6.5^a months and 3.3^c months and 2.3^c months. The “PFS (months)” value (relapsed/refractory PTCL [1]; [4]) was 14.8^a months and 17.8^b months and 15.5^b months and 8.1 months and 4.6^c months and 3.4^c months and 4.6^a months, the “Duration of Response (months)” value (relapsed/refractory PTCL [1]; individual responders after first-line CHOP, central review, most values censored, listed as pralatrexate) was 2.3 months and 3.3 months and the “Patients still alive at the time of last contact” value (relapsed/refractory PTCL [1]; of the 15 patients) was 73%. The “Patients who proceeded to a stem cell transplant upon attaining a response to pralatrexate” value (relapsed/refractory PTCL [1]; of the 15 patients treated only with CHOP) was “Two”, the “CR/CRu by investigators assessment” value (relapsed/refractory PTCL [1]; other patients (n=94)) was 16% and the “Median PFS according to central review” value (relapsed/refractory PTCL [1]; other patients (n=94)) was 3.1 months. The “Median PFS per investigator assessment” value (relapsed/refractory PTCL [1]; other patients (n=94)) was 3.5 months, the “Median duration of response per investigator assessment” value (relapsed/refractory PTCL [1]; other patients (n=94)) was 6.7 months and the “ORR by investigators assessment” value (relapsed/refractory PTCL [1]; other patients (n=94)) was 39%. For the same compound, the “CR/CRu by independent central review” value (relapsed/refractory PTCL [1]; [5]) was 10%, the “ORR by independent central review” value (relapsed/refractory PTCL [1]; [5]) was 27% and the “12-month OS estimate” value (relapsed/refractory PTCL [1]; second-line after CHOP, N=15) was 73%. The “OS, Median, months (95% CI)” value (relapsed/refractory PTCL [1]; second-line after CHOP, N=15, NE = not able to estimate) was “not able to be estimated”, the “PFS, Range” value (relapsed/refractory PTCL [1]; [6]) was 0.7-17.8^c months and the “Tumor Response: CRu” value (relapsed/refractory PTCL [1]; [6]) was 0 (0) n (%). The “Tumor Response: Not evaluable” value (relapsed/refractory PTCL [1]; [6]) was 0 (0) n (%), the “Tumor Response: ORR (CR + CRu + PR)” value (relapsed/refractory PTCL [1]; [6]) was 7 (47) n (%) and the “Tumor response: CR” value (relapsed/refractory PTCL [1]; [6]) was 3 (20) n (%). The “Tumor response: PD” value (relapsed/refractory PTCL [1]; [6]) was 4 (27) n (%), the “Tumor response: PR” value (relapsed/refractory PTCL [1]; [6]) was 4 (27) n (%) and the “Tumor response: SD” value (relapsed/refractory PTCL [1]; [6]) was 4 (27) n (%). For the same compound, the “PFS, Median, months (95% CI)” value (relapsed/refractory PTCL [1]; second-line after CHOP, N=15, central review, Kaplan-Meier) was 8.1 (4.6, NE) months, the “PFS, Median, months (95% CI)” value (relapsed/refractory PTCL [1]; second-line after CHOP, N=15, central review, Kaplan-Meier, listed as pralatrexate) was 8.1 months and the “Duration of response, Median, months (95% CI)” value (“Duration of response … (95% CI)” below) (relapsed/refractory PTCL [1]; second-line after CHOP, N=15, central review, NE = not able to estimate, insufficient PD events) was “not reached; also recorded: not yet estimable”. The “Tumor Response: CRu” value (relapsed/refractory PTCL [1]; [7]) was 1 (7) n (%), the “Tumor Response: Not evaluable” value (relapsed/refractory PTCL [1]; [7]) was 1 (7)^a n (%) and the “Tumor Response: ORR (CR + CRu + PR)” value (relapsed/refractory PTCL [1]; [7]) was 6 (40) n (%). For the same compound, the “Tumor response: CR” value (relapsed/refractory PTCL [1]; [7]) was 4 (27) n (%), the “Tumor response: PD” value (relapsed/refractory PTCL [1]; [7]) was 4 (27) n (%) and the “Tumor response: PR” value (relapsed/refractory PTCL [1]; [7]) was 1 (7) n (%). For the same compound, the “Tumor response: SD” value (relapsed/refractory PTCL [1]; [7]) was 4 (27) n (%), the “Duration of response … (95% CI)” value (relapsed/refractory PTCL [1]; [8]) was 12.5 (10.8, NE) months and the “PFS, Median, months (95% CI)” value (relapsed/refractory PTCL [1]; [8]) was 7.4 (2.3, 15.0) months. For the same compound, the “Duration of response … (95% CI)” value (relapsed/refractory PTCL [1]; [9]) was 12.5 months, the “PFS, Median, months (95% CI)” value (relapsed/refractory PTCL [1]; [9]) was 7.4 months and the “OS, Range” value (relapsed/refractory PTCL [1]; second-line after CHOP, N=15, survival follow-up ended at 2 years) was 1.5-24.0^d months. The “Current disease-free period (duration of response to pralatrexate + time since stem cell transplant)” value (relapsed/refractory PTCL [1]; the 2 patients who proceeded to stem cell transplant) was 20.9 months and 27.2 months and 20.1 months and 21.7 months, the “Median OS (months)” value (relapsed/refractory PTCL [2]; [10]) was 8.2 months and the “ORR by Central Review (CR + CRu + PR)” value (relapsed/refractory PTCL [2]; [10]) was 7%. For the same compound, the “ORR by Investigator Assessment (CR + CRu + PR)” value (relapsed/refractory PTCL [2]; [10]) was 7%, the “Median PFS by Central Review (months)” value (relapsed/refractory PTCL [2]; [10]) was 1.3 months and the “Median Duration of Response by Central Review (months)” value (relapsed/refractory PTCL [2]; [11]) was 10.1 months. For the same compound, the “Median OS (months)” value (relapsed/refractory PTCL [2]; [11]) was 20.5 months, the “ORR by Central Review (CR + CRu + PR)” value (relapsed/refractory PTCL [2]; [11]) was 45% and the “ORR by Investigator Assessment (CR + CRu + PR)” value (relapsed/refractory PTCL [2]; [11]) was 63%. The “Median PFS by Central Review (months)” value (relapsed/refractory PTCL [2]; [11]) was 4.9 months, the “Median Duration of Response by Central Review (months)” value (relapsed/refractory PTCL [2]; [12]) was 13.1 months and the “Median OS (months)” value (relapsed/refractory PTCL [2]; [12]) was 22.9 months. For the same compound, the “ORR by Central Review (CR + CRu + PR)” value (relapsed/refractory PTCL [2]; [12]) was 54%, the “ORR by Investigator Assessment (CR + CRu + PR)” value (relapsed/refractory PTCL [2]; [12]) was 70% and the “Median PFS by Central Review (months)” value (relapsed/refractory PTCL [2]; [12]) was 8.1 months.
